{
  "source": "patent US7915291B2",
  "about": "“Hepatitis C virus inhibitors” (Bristol-Myers Squibb Company, priority 2002, dated 2011)",
  "system": "HCV replicon in Huh7 cells",
  "assay": "HCV replicon cell-based assay",
  "set-up": "species or system HCV strain 1B",
  "details": "Hepatitis C virus, Huh-7, HCV replicon, Huh7 cells",
  "note": "Like-named read-outs stand apart in the source and are kept apart here.",
  "data": [
    {"compound": "C=C[C@@H]1C[C@]1(NC(=O)[C@@H]1C[C@@H](Oc2nc(C3CC3)cc3ccccc23)CN1C(=O)[C@@H](NC(=O)OC(C)(C)C)C(C)(C)C)C(=O)NS(=O)(=O)C1CC1", "note": "[Compound 34]", "values": [
      {"measurement": "EC50", "setting": "read-out: EC50 range", "result": "100 to 1000", "unit": "nM"},
      {"measurement": "EC50", "setting": "read-out: EC50 value in the replicon assay", "result": 166, "unit": "nM"}
    ]}
  ]
}
